These results are taken from BindingDB's records for patent US10800778 (Entasis Therapeutics Limited, 2020).

SMILES strings stand for the structures.

The IC50 is the concentration that gives 50% inhibition.

Experiment [1] deals with Beta-lactamase TEM (Escherichia coli, UniProt P62593). In words: Inhibition of Beta-Lactamase Enzymes. On the procedure:
(§1) A buffer consisting of 0.1 M sodium phosphate (pH 7.0), 10 mM NaHCO3, and 0.005% Triton X-100 was used for all enzymes. The chromogenic substrate nitrocefin (SynGene, Bangalore, India) was used at 100 μM. Enzyme activity was monitored by the 490 nm absorbance increase upon nitrocefin hydrolysis. Assays were performed in clear polystyrene 384-well plates (Greiner Bio-One, Monroe, N.C.). Absorbance was measured for 1 hour at 30-s intervals using a Spectramax absorbance plate reader (Molecular Devices, Sunnyvale, Calif.). Measurement of beta-lactamase inhibition by INHIBITOR employed serial 3-fold dilutions of the inhibitor in assay buffer, ranging from 100 μM to 62.7 pM. A background absorbance progress curve for a control lacking enzyme and inhibitor was subtracted from each progress curve.

The target in experiment [2] is Beta-lactamase (Klebsiella pneumoniae, UniProt Q6XEC0). Kind of experiment: Inhibition of Beta-Lactamase Enzymes. On the procedure: as §1
Beta-lactamase, sequence (Q6XEC0 whole entry): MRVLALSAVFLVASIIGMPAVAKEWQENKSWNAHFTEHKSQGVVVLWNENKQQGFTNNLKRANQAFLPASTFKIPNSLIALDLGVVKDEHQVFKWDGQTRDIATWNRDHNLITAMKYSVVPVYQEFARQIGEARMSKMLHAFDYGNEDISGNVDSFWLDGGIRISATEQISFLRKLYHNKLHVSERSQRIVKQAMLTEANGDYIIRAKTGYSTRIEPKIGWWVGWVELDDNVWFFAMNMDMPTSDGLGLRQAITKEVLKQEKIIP

Beta-lactamase TEM, sequence (P62593 whole entry): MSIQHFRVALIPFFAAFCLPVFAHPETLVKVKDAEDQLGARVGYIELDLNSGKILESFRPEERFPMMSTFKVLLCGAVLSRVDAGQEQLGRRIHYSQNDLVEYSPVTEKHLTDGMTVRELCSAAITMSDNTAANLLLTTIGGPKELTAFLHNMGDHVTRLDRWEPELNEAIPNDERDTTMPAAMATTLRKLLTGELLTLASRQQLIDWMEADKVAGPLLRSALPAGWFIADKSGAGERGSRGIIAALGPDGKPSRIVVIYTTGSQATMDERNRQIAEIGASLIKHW

Take `CC1=C[C@@H]2CN(C(=O)N2O[C@@H](F)C(=O)O)[C@@H]1C(=O)NOC[C@@H]1CCCN1` [US10800778, Example 62]: the IC50 was determined as 210 nM in experiment [1] and 870 nM in experiment [2].
